US12257339B2, “Phytocomplex and extract of a meristematic cell line selected from a plant belonging to the genus Rosa” (AETHERA BIOTECH S.R.L., priority 2019, dated 2025)

Experiment: Antioxidant activity, DPPH method
Type: biochemical
Conditions: methanol extract/solution; absorbance at 517 nm
Method: The assay of antioxidant activity was performed using the DPPH method. The assay with the DPPH (2,2-diphenyl-1-picryl-hydrazyl) radical has the aim of evaluating, in vitro, the antioxidant activity of the line of Rosa […] vis-à-vis a stained stable radical and measuring its disappearance by spectrophotometry. […] The Rc-F2P homogenate of meristematic cells of Rosa […] extracted in methanol and placed in an ultrasonic bath for 20 minutes. Various aliquots of solution were taken and they were added to a same amount of DPPH solution and brought to volume with methanol, so as to evaluate the antioxidant capacity of the sample at different concentrations. The results are expressed as EC50, i.e. as the concentration of the Rc-F2P phytocomplex capable of decreasing the initial absorbance of the radical at 517 nm by 50%. The result is then compared with that obtained from a methanol solution of ascorbic acid, used as a reference. The lower the EC50, the greater the antioxidant capacity.

EC50 (concentration decreasing the initial absorbance of the DPPH radical at 517 nm by 50%): 3.19 ± 0.16 µg/mL
SMILES: O=C1O[C@H]([C@@H](O)CO)C(O)=C1O [Ascorbic acid, ascorbic acid]
